Assay results reported in the Deep4Chem optical property database.
Where “and” joins values, the source holds several entries; their conditions need not be identical. Identical values can stand only once.

Assay: solvent given as SMILES

Compound: O=C1C=C(Nc2ccccc2)CCC1
- absorption maximum (in C1CCCCC1): 295 nm
- absorption maximum (in C1CCOC1): 302 nm
- absorption maximum (in C1COCCO1): 302 nm
- absorption maximum (in CC1CCCCC1): 295 nm
- absorption maximum (in CC#N): 307 nm
- absorption maximum (in CC(C)O): 307 nm
- absorption maximum (in CCO): 307 nm
- absorption maximum (in CCOC(C)=O): 301 nm
- absorption maximum (in CCOCC): 296 nm
- absorption maximum (in CN(C)C=O): 306 nm
- absorption maximum (in CO): 305 nm
- absorption maximum (in CS(C)=O): 307 nm
- absorption maximum (in ClC(Cl)(Cl)Cl): 299 nm
- absorption maximum (in ClC(Cl)Cl): 303 nm
- absorption maximum (in O): 306 nm

Compound: CCN(CC)c1ccc(/C=N/Nc2ccc(C#N)cc2)c(O)c1
- absorption maximum (in CC#N): 382 nm
- absorption maximum (in CCCCCC): 384 nm
- absorption maximum (in CO): 368 nm
- absorption maximum (in CS(C)=O): 391 nm
- absorption maximum (in ClC(Cl)Cl): 373 nm

Compound: Cn1c(-c2ccc(-c3nc(-c4ccccc4)c(-c4ccccc4)n3C)cc2)nc(-c2ccccc2)c1-c1ccccc1
- absorption maximum (in CC#N): 365 nm and 334 nm

Compound: Cc1ccc2c(c1)nnn2-c1c(C#N)c2c(N)ncnc2n1[C@H]1C[C@H](O)[C@@H](CO)O1
- absorption maximum (in CO): 278 nm

Compound: N#Cc1ccc(-n2c3ccccc3c3c2c2ccccc2n3-c2ccccc2)cc1
- absorption maximum (in Cc1ccccc1): 359 nm

Compound: COc1ccc(-c2nc(-c3ccccc3)c(N(C)C)[se]2)cc1
- absorption maximum (in ClC(Cl)Cl): 339 nm

Compound: Cc1ccc(/C2=c3\cc/c(o3)=C(\c3ccc(C)cc3)c3ccc([nH]3)-c3ccc4n3[P-](=O)(=O)[N+]3=C(C=CC3=C4c3ccco3)c3ccc2[nH]3)cc1
- absorption maximum (in ClC(Cl)Cl): 744 nm

Compound: O=c1oc2ccccc2cc1-c1nc2ccccc2o1
- absorption maximum (in C1CCOC1): 354 nm
- absorption maximum (in C1COCCO1): 357 nm
- absorption maximum (in CC1CCCCC1): 356 nm
- absorption maximum (in CC#N): 352 nm
- absorption maximum (in CC(C)=O): 352 nm
- absorption maximum (in CC(C)CO): 353 nm
- absorption maximum (in CC(C)O): 354 nm
- absorption maximum (in CCOC(C)=O): 352 nm
- absorption maximum (in CN(C)C=O): 352 nm
- absorption maximum (in CO): 352 nm
- absorption maximum (in CS(C)=O): 354 nm
- absorption maximum (in Cc1ccccc1): 360 nm
- absorption maximum (in ClC(Cl)(Cl)Cl): 360 nm
- absorption maximum (in ClC(Cl)Cl): 356 nm
- absorption maximum (in OCCO): 354 nm

Compound: CC(C)(C)c1ccc(N(c2ccc(C(C)(C)C)cc2)c2ccc3c(N(c4ccc(C(C)(C)C)cc4)c4ccc(C(C)(C)C)cc4)cc4c5cc(N(c6ccc(C(C)(C)C)cc6)c6ccc(C(C)(C)C)cc6)ccc5c(N(c5ccc(C(C)(C)C)cc5)c5ccc(C(C)(C)C)cc5)cc4c3c2)cc1
- absorption maximum (in ClCCl): 433 nm

Compound: c1ccc(-c2nc(-c3ccccc3)nc(-c3ccc(-n4c5ccccc5c5cc(-n6c7ccccc7c7ccccc76)ccc54)c4c5ccccc5n(-c5ccccc5)c34)n2)cc1
- absorption maximum (in Cc1ccccc1): 378.07 nm

Compound: CCC1=C(C)C2=C(C)c3cc(I)cn3[B-](F)(F)[N+]2=C1C
- absorption maximum (in C1CCCCC1): 517.5 nm
- absorption maximum (in CC(C)=O): 502.5 nm
- absorption maximum (in CCO): 506 nm
- absorption maximum (in CCOC(C)=O): 504.5 nm
- absorption maximum (in CO): 503.5 nm
- absorption maximum (in OCC(F)(F)F): 499.5 nm

Compound: CC1(C)C(/C=C/C2=C(Oc3ccc(CCN=C=S)cc3I)C(=C/C=C3/N(CCCS(=O)(=O)[O-])c4ccccc4C3(C)C)/CCC2)=[N+](CCCS(=O)(=O)[O-])c2ccccc21
- absorption maximum (in CO): 766 nm

Compound: C=Cc1cc2ccc(OC(=O)c3ccccc3)cc2oc1=O
- absorption maximum (in CC#N): 328 nm

Compound: OC1(c2ccc(-c3cccs3)s2)CCC1
- absorption maximum (in C1CCOC1): 311 nm
- absorption maximum (in CC#N): 309 nm
- absorption maximum (in CCCCCC): 308 nm
- absorption maximum (in CCO): 310 nm
- absorption maximum (in OCCOCCO): 314 nm
- absorption maximum (in c1ccncc1): 316 nm

Compound: C[N+]1=c2ccc3c(c2C(C)(C)CC1)Oc1cc2c(cc1C=3c1ccccc1C(=O)O)C(c1ccccc1C(=O)O)=c1ccc3c(c1O2)C(C)(C)CC[N+]=3C
- absorption maximum (in ClC(Cl)Cl): 617 nm

Compound: CC(=O)OCCN1C(=O)c2cccc3c(Oc4ccc(C#N)cc4)ccc(c23)C1=O
- absorption maximum (in ClC(Cl)Cl): 351 nm

Compound: Cc1s[c+](N2CCOCC2)sc1-c1cc(I)cc(I)c1[O-]
- absorption maximum (in C1CCOC1): 425 nm
- absorption maximum (in CC#N): 409 nm
- absorption maximum (in CO): 371 nm
- absorption maximum (in ClCCl): 413 nm

Compound: CC1(C)CC(NCc2ccc3ccc4cccc5ccc2c3c45)CC(C)(C)N1
- absorption maximum (in C1CCCCC1): 374 nm
- absorption maximum (in CC#N): 374 nm
- absorption maximum (in CO): 374 nm
- absorption maximum (in ClC(Cl)Cl): 389 nm
